Results reported in paper PMC7662639, “Synthesis and Evaluation of PEG-PR for Water Flux Correction in an In Situ Rat Perfusion Model” (Molecules, 2020).
Like-named read-outs stand apart in the source and are kept apart here.

Columns and labels:
[1] = parameters: method as in ref 39 (Ruiz-Picazo et al. 2017); conditions: Doluisio method, ref 39 (Ruiz-Picazo et al. 2017), cited from earlier work
[2] = Stability of markers and model drugs in Krebs–Ringer buffer (shaker bath, 37 °C, 120 min); format: physicochemical; conditions: for Ending (120 min) Conc. / Initial Conc.: 37 °C shaker bath, mean ± SD, n = 3; for Initial Conc.: start of experiment; for Percentage of concentration change: (Initial Conc. - Ending Conc.) / Initial Conc., 37 °C; for Ending (120 min) Conc. / Percentage of concentration change: 120 min
Protocol: At the beginning and end (120 min) of the experiment, perfusion solution samples (0.4 mL) were acquired and centrifuged at 12,000 rpm for 10 min to determine the concentration changes of all compounds by HPLC analysis.
Table S1. Concentration changes of all compounds before and after the shaker bath
experiment. Data are shown as mean ± SD, n = 3.
Initial Ending Percentage of
Compound (120 min) concentration
As/Ai Conc. (μM) As/Ai Conc. (μM) change
As: HPLC peak area of compound .
Ai: HPLC peak area of internal standard .
Percentage of concentration change: (Initial Conc. -Ending Conc.) / Initial Conc.
Figure S7. Calibration line of PR (MW = 354) in Krebs–Ringer buffer.
(1 picture or pasted object on this page, not shown here)

[3] = Recirculation intestinal perfusion method, Peff of model drugs with water flux corrected by marker; format: in vivo, rat
Protocol: A male rat weighing about 200 g was anesthetized and then fixed on a plate heated by a lamp at 37 °C. Through careful operation, two glass tubs were tightly secured on both ends of the intestinal segment using silk sutures. The Krebs–Ringer buffer was injected into the gut from the head end of the intestinal segment with a syringe until the outflow was clear. The intestine was then covered with cotton gauze wetted with 37 °C Krebs–Ringer buffer to maintain intestinal integrity and activity. The peristaltic pump and donor chamber (syringe) were connected with two catheters ligated onto the two abovementioned glass tubs. The intestinal segments were placed carefully back into the rat abdomen to avoid interference with blood circulation. […] After stabilizing the whole system for 10 min with the perfusion solution (peristaltic pump, flow: 5 mL/min), the initial sample (0.4 mL, C’0) was collected from the donor chamber, and the equal perfusion solution with the model drug (100 μM, C0) was added into the donor chamber. Samples (0.4 mL, C’t and Ce) were then collected every 10 min for 60 min. Finally, the length of the perfused intestinal segment was precisely measured at the end of the experiment.
Internal standard solution (cresol red, 600 μg/mL) was added into the 300-μL sample solution and vortexed for 30 s. Then, 600 μL of […] was added, and the samples were vortexed for 2 min. After homogeneous mixing, the mixture was centrifuged at 10,000 rpm for 10 min. Finally, the 20-μL treated supernatant was subjected to detection by HPLC.
Thus, it was necessary to correct the volume of the perfusion solution during the experiment. In this work, the volumes of the perfused solutions (Vt) were calculated from the experimental concentrations of the markers (C’t) as (4) V0=C^′V^′/C0′ (5) Vt=(V0−0.4)Ct−1′+0.4C^′/Ct′ (t=1,2,3…).
The corrected drug concentration (Ct) was calculated as (6) Ct=CeVt/V0 where Ct represents the concentration of the compound corrected by the marker at time t, and Ce represents the experimental drug concentration value.
The apparent absorption rate coefficients (ka) were obtained by the equation of luminal corrected concentration versus time:(7) Ct=C0×e^−ka·t.
The Peff value was obtained from ka using the following equation, where R is the effective radius of the intestinal segment:(8) Peff=Ka·R/2.

[4] = parameters: method as in ref 21 (Tugcu-Demiroz et al. 2014); conditions: Doluisio technique; ref 21 (Tugcu-Demiroz et al. 2014); cited from earlier work
[5] = Everted gut sac (EGS) permeability; format: in vitro ADME, rat
Protocol: Briefly, the male Wistar rats were fasted for 1 day with access to only double-distilled water and then anesthetized with ether. Then, the duodenum, jejunum, ileum, and colon (10–15 cm) were cut out and preserved in cold Krebs–Ringer buffer. After the intestinal residue was removed, the intestinal segments were everted by a glass rod and ligated onto the appropriate glass tube. […] Then, 0.4 mL of receiver fluid was collected from the everted intestinal segments, and an equal blank Krebs–Ringer buffer was replenished every 15 min during the experiment.
An internal standard (cresol red 100 μg/mL) was added to every 300-μL intestinal fluid sample. The mixture was vortexed for 30 s and dried under nitrogen blowing at 40 °C. The residue was redissolved in 150-μL methanol and vortexed for 30 s. The supernatant was then subjected to detection by HPLC after centrifuging at 10,000 rpm for 10 min.

[6] = parameters: method as in ref 22 (Sutton et al. 2001); conditions: SPIP; ref 22 (Sutton et al. 2001); cited from earlier work
[7] = after 8 h, rat perfusion experiments; cited from earlier work
[8] = Water flux (Jwater) corrected by marker in the recirculation perfusion model; format: in vivo, rat; conditions: 60–120 min, marker 56 μM, mean ± SD, n = 6
Protocol: The effective intestinal membrane permeability (Peff) of each model drug was surveyed using the recirculation intestinal perfusion method, as previously mentioned. A male rat weighing about 200 g was anesthetized and then fixed on a plate heated by a lamp at 37 °C. Through careful operation, two glass tubs were tightly secured on both ends of the intestinal segment using silk sutures. The Krebs–Ringer buffer was injected into the gut from the head end of the intestinal segment with a syringe until the outflow was clear. The intestine was then covered with cotton gauze wetted with 37 °C Krebs–Ringer buffer to maintain intestinal integrity and activity. The peristaltic pump and donor chamber (syringe) were connected with two catheters ligated onto the two abovementioned glass tubs. […] Finally, the length of the perfused intestinal segment was precisely measured at the end of the experiment.
As previously mentioned, the water flux through the membrane due to water absorption and secretion was of such significance that it could have influence on the accuracy of the experimental results. […] In this work, the volumes of the perfused solutions (Vt) were calculated from the experimental concentrations of the markers (C’t) as (4) V0=C^′V^′/C0′ (5) Vt=(V0−0.4)Ct−1′+0.4C^′/Ct′ (t=1,2,3…).
Jwater corrected by the marker was calculated using the following equation:(9) Jwater=d(V0−Vt)/dt (t=1,2,3…).

[9] = rat complete small intestine, water flux corrected by PEG4k-PR, mean ± SD, n = 3
[10] = rat complete small intestine, water flux corrected by PEG5k-PR, mean ± SD, n = 3
[11] = rat complete small intestine, water flux corrected by PR, mean ± SD, n = 3

For CC(C)NCC(O)COc1ccc(CC(N)=O)cc1 (stereo not drawn) [Atenolol], the Peff ([1]; colon) is given as 21.1 ×10⁻⁶ cm/s, the Peff ([1]; ileum) is given as 16.3 ×10⁻⁶ cm/s and the Peff ([1]; jejunum) is given as 22.7 ×10⁻⁶ cm/s. For the same compound, the “Ending (120 min) Conc.” value [2] was 105.93 ± 0.61 µM, the “Initial Conc.” value [2] was 105.19 ± 0.96 µM and the “Percentage of concentration change” value [2] was 0.75%. The Peff ([3]; colon, corrected by PEG5k-PR) was 3.3e-05 cm/s, the Peff ([3]; ileum, corrected by PEG5k-PR) was 2.3e-05 cm/s and the Peff ([3]; jejunum, corrected by PEG5k-PR) was 2.6e-05 cm/s. The Peff [3, 9] was 1.06 ± 0.24 ×10^−5 cm/s, the Peff [3, 10] was 1.38 ± 0.34 ×10^−5 cm/s and the Peff [3, 11] was 0.49 ± 0.10 ×10^−5 cm/s.

With COCCc1ccc(OCC(O)CNC(C)C)cc1 (stereo not drawn) [Metoprolol] the “Ending (120 min) Conc.” value [2] was 102.12 ± 0.58 µM, the “Initial Conc.” value [2] was 103.62 ± 2.29 µM and the “Percentage of concentration change” value [2] was 1.46%. The Peff ([3]; colon, corrected by PEG5k-PR) was 0.000102 cm/s, the Peff ([3]; ileum, corrected by PEG5k-PR) was 9.4e-05 cm/s and the Peff ([3]; jejunum, corrected by PEG5k-PR) was 0.000107 cm/s. For the same compound, the Peff [3, 9] was 5.06 ± 0.57 ×10^−5 cm/s, the Peff [3, 10] was 5.29 ± 1.49 ×10^−5 cm/s and the Peff [3, 11] was 5.11 ± 0.85 ×10^−5 cm/s.

For Phenol red [PR], the water flux [4] is listed as 55 µL/cm/h, the cumulative permeable percentage ([5]; 56 μM, all intestinal segments) is listed as 3–5% and the “cumulative permeable percentage at 112 μM relative to 28 μM” value ([5]; colon) is listed as “twice as large”. The Papp ([5]; colon, 28 μM) was 4.07 ± 1.33 ×10^−6 cm/s, the “W (cumulative permeable percentage)” value ([5]; colon, 28 μM) was 2.50 ± 0.82% and the Papp ([5]; colon, 56 μM) was 5.83 ± 1.9 ×10^−6 cm/s. The “W (cumulative permeable percentage)” value ([5]; colon, 56 μM) was 3.36 ± 0.79%, the Papp ([5]; colon, 112 μM) was 8.57 ± 3.54 ×10^−6 cm/s and the “W (cumulative permeable percentage)” value ([5]; colon, 112 μM) was 5.18 ± 1.22%. For the same compound, the Papp ([5]; ileum, 28 μM) was 6.17 ± 2.17 ×10^−6 cm/s, the “W (cumulative permeable percentage)” value ([5]; ileum, 28 μM) was 3.55 ± 1.50% and the Papp ([5]; ileum, 56 μM) was 6.77 ± 2.32 ×10^−6 cm/s. For the same compound, the “W (cumulative permeable percentage)” value ([5]; ileum, 56 μM) was 4.23 ± 1.38%, the Papp ([5]; ileum, 112 μM) was 8.90 ± 1.65 ×10^−6 cm/s and the “W (cumulative permeable percentage)” value ([5]; ileum, 112 μM) was 5.27 ± 2.31%. The Papp ([5]; jejunum, 28 μM) was 7.68 ± 2.04 ×10^−6 cm/s, the “W (cumulative permeable percentage)” value ([5]; jejunum, 28 μM) was 4.44 ± 1.98% and the Papp ([5]; jejunum, 56 μM) was 8.36 ± 3.11 ×10^−6 cm/s. The “W (cumulative permeable percentage)” value ([5]; jejunum, 56 μM) was 4.92 ± 1.12%, the Papp ([5]; jejunum, 112 μM) was 10.42 ± 2.58 ×10^−6 cm/s and the “W (cumulative permeable percentage)” value ([5]; jejunum, 112 μM) was 5.77 ± 1.70%. The “average corrected water flux” value [6] was 26.8 ± 49.2 µL/cm/h, the urinary recovery [7] was “about 4%” and the “Ending (120 min) Conc.” value [2] was 56.11 ± 1.57 µM. For the same compound, the “Initial Conc.” value [2] was 56.90 ± 1.10 µM, the “Percentage of concentration change” value [2] was 1.38% and the “Jwater (water flux) corrected by the marker” value [8] was 88.7 ± 37.9 µL/cm/h.
